{"source": "patent US20250302799A1", "about": "“PHARMACEUTICAL COMPOSITION CONTAINING FRAXETIN FOR PREVENTION OR TREATMENT OF ENDOMETRIOSIS” (Research & Business Foundation Sungkyunkwan University, priority 2024, published 2025)", "type_in_all_cases": "cell-based, human", "key": {"End1/E6E7 cells [1]": {"system": "End1/E6E7 cells", "assay": "Icam1/Vcam1 expression in endometriosis cell line", "experimental": "(§1) The endometrial cell lines VK2/E6E7, End1/E6E7, and normal endometrial stromal cell line T-HESC were purchased from ATCC. The cells were cultured in keratinocyte serum-free medium or DMEM/F12 1:1 medium containing 10% FBS for monolayer culture. Endometrial cell lines (VK2/E6E7,End1/E6E7) and normal cells were cultured at 37° C. in a 5% CO2 incubator."}, "VK2/E6E7 cells [2]": {"system": "VK2/E6E7 cells", "assay": "Icam1/Vcam1 expression in endometriosis cell line", "experimental": "as §1"}, "End1/E6E7 cells [3]": {"system": "End1/E6E7 cells", "assay": "Intracellular calcium concentration (fluo-4 staining)", "experimental": "(§2) To examine intracellular or mitochondrial calcium concentration changes in endometrial cells induced by fraxetin, the inventors conducted experiments using 3 μM fluo-4 acetoxymethyl ester (AM) (Invitrogen) and 3 μM rhod-2.\n(§3) First, cells were cultured in 6-well plates, treated with fraxetin in a dose-dependent manner (0 μM, 5 μM, 10 μM, 20 μM, 50 μM, 100 μM), and incubated at 37° C. in a 5% CO2 incubator for 48 hours. The cells were then detached using trypsin, washed with PBS, and stained with 3 μM fluo-4 or 3 μM rhod-2 for 20 minutes at 37° C. in a 5% CO2 incubator. After staining, the cells were washed with PBS, transferred to FACS tubes, and analyzed by flow cytometry to measure intracellular or mitochondrial calcium concentrations."}, "VK2/E6E7 cells [4]": {"system": "VK2/E6E7 cells", "assay": "Intracellular calcium concentration (fluo-4 staining)", "experimental": "as §2, §3"}, "End1/E6E7 cells [5]": {"system": "End1/E6E7 cells", "assay": "Western blot analysis of protein expression and phosphorylation", "experimental": "(§4) To analyze protein expression related to the development of endometriosis following fraxetin treatment, the inventors conducted western blot analysis.\n(§5) Briefly, endometrial cells were treated with fraxetin in a dose-dependent manner or in combination with signaling pathway inhibitors. Total proteins were extracted from the treated cells, and protein quantification was performed using the Bradford protein assay (Bio-Rad, Hercules, CA, USA). The extracted proteins were then denatured at 95° C. for 5 minutes and subjected to electrophoresis on a 10% SDS/PAGE gel before being transferred to a nitrocellulose membrane. The membrane was subsequently incubated with primary and secondary antibodies, and target protein expression was analyzed using chemiluminescence detection reagents (Supersignal West Pico, Pierce, Rockford, IL, USA) with the ChemiDoc EQ system and Quantity One software (Bio-Rad)."}, "VK2/E6E7 cells [6]": {"system": "VK2/E6E7 cells", "assay": "Western blot analysis of protein expression and phosphorylation", "experimental": "as §4, §5"}, "endometrial cells": {"system": "endometrial cells", "assay": "tiRNA expression by real-time PCR (cell line not stated)", "conditions": "following fraxetin treatment", "experimental": "To confirm the expression of tiRNA (tRNA-derived stress-induced RNAs) associated with the development of endometriosis, the inventors conducted real-time PCR.\nFirst, information on candidate tiRNA sequences and mature tRNA sources was obtained from MINTbase (https://cm.jefferson.edu/MINTbase/). miRNA CDNA synthesis was performed using a cDNA kit (Agilent Technologies) to confirm tiRNA expression, with U6 snRNA used for normalization. For transfection of the tiRNA^His GTG inhibitor (5′-AACCGAGAGUACUAACCACUAUACGAUCACCGC-3′) (40 nM), Lipofectamine 2000 was used in Opti-MEM."}, "End1/E6E7 cells [7]": {"system": "End1/E6E7 cells", "assay": "Apoptosis by Annexin V and propidium iodide staining", "experimental": "(§6) To assess the apoptosis-inducing effect of fraxetin in endometrial cells, the inventors used a FITC Annexin V Apoptosis Detection Kit I (BD Sciences).\n(§7) First, VK2/E6E7 and End1/E6E7 cells were cultured in 6-well plates, treated with fraxetin in a dose-dependent manner (0 μM, […], 10 μM, 20 µM, 50 μM, 100 μM), and incubated for 48 hours at 37° C. in a 5% CO2 incubator. The cells were then detached using trypsin, washed with PBS, and mixed slowly with 1 mL of 1X binding buffer. After centrifugation, the cell pellet was resuspended in 200 μL of 1X binding buffer. The suspension (100 μL) was transferred to a 1.5 mL brown tube, and 5 μL of Annexin V and PI (propidium iodide) were added, followed by staining at room temperature for 15 minutes. After adding 400 μL of 1X binding buffer, the stained solution was transferred to a 5 mL FACS tube, and the number of apoptotic cells was measured by analyzing fluorescence intensity using flow cytometry."}, "VK2/E6E7 cells [8]": {"system": "VK2/E6E7 cells", "assay": "Apoptosis by Annexin V and propidium iodide staining", "experimental": "as §6, §7"}, "End1/E6E7 cells [9]": {"system": "End1/E6E7 cells", "assay": "Mitochondrial respiration (XF Cell Mitostress kit)", "experimental": "(§8) To confirm the effects of fraxetin on mitochondrial respiration in endometrial cells, the inventors used an XF Cell Mitostress kit.\n(§9) In brief, endometrial cells were seeded in 24-well plates and cultured at 37° C. in a 5% CO2 incubator for 16 hours, followed by treatment with […]. Subsequently, various mitochondrial respiration parameters were measured by sequential treatment with oligomycin, FCCP, rotenone, and antimycin A in the two cell lines."}, "VK2/E6E7 cells [10]": {"system": "VK2/E6E7 cells", "assay": "Mitochondrial respiration (XF Cell Mitostress kit)", "experimental": "as §8, §9"}}}
{"smiles": "COc1cc2ccc(=O)oc2c(O)c1O", "note": "[fraxetin]", "values": [{"measurement": "expression levels of Icam1 and Vcam1", "setting": "End1/E6E7 cells [1]", "value": "significant decrease"}, {"measurement": "expression levels of Icam1 and Vcam1", "setting": "VK2/E6E7 cells [2]", "value": "significant decrease"}, {"measurement": "calcium levels (upregulated to)", "setting": "End1/E6E7 cells [3]", "value": 180, "unit": "%"}, {"measurement": "calcium levels (upregulated to)", "setting": "VK2/E6E7 cells [4]", "value": 300, "unit": "%"}, {"measurement": "reduction of S6 phosphorylation", "setting": "End1/E6E7 cells [5]; 20 μM fraxetin, End1/E6E7", "value": 59, "unit": "%"}, {"measurement": "ERK1/2 phosphorylation", "setting": "End1/E6E7 cells [5]; 50 μM fraxetin, End1/E6E7", "value": 0.51, "unit": "fold"}, {"measurement": "p38 phosphorylation compared to control", "setting": "End1/E6E7 cells [5]; 50 μM fraxetin, first value, End1/E6E7 assumed", "value": 0.61, "unit": "fold"}, {"measurement": "IRE1α expression", "setting": "End1/E6E7 cells [5]; End1/E6E7", "value": 1.7, "unit": "fold"}, {"measurement": "expression of anti-apoptotic protein Bcl-xL", "setting": "End1/E6E7 cells [5]; End1/E6E7", "value": "reduced"}, {"measurement": "inhibition of AKT phosphorylation compared to control", "setting": "End1/E6E7 cells [5]; End1/E6E7", "value": 57, "unit": "%"}, {"measurement": "pro-apoptotic protein BAK", "setting": "End1/E6E7 cells [5]; End1/E6E7", "value": "increased"}, {"measurement": "pro-apoptotic protein BAX", "setting": "End1/E6E7 cells [5]; End1/E6E7", "value": "increased"}, {"measurement": "ERK1/2 phosphorylation", "setting": "VK2/E6E7 cells [6]; 50 μM fraxetin, VK2/E6E7", "value": 0.61, "unit": "fold"}, {"measurement": "p38 phosphorylation compared to control", "setting": "VK2/E6E7 cells [6]; 50 μM fraxetin, second value, VK2/E6E7 assumed", "value": 0.47, "unit": "fold"}, {"measurement": "IRE1α expression", "setting": "VK2/E6E7 cells [6]; VK2/E6E7", "value": 0.53, "unit": "fold"}, {"measurement": "expression of anti-apoptotic protein Bcl-xL", "setting": "VK2/E6E7 cells [6]; VK2/E6E7", "value": "reduced"}, {"measurement": "pro-apoptotic protein BAK", "setting": "VK2/E6E7 cells [6]; VK2/E6E7", "value": "increased"}, {"measurement": "pro-apoptotic protein BAX", "setting": "VK2/E6E7 cells [6]; VK2/E6E7", "value": "increased"}, {"measurement": "mRNA expression of tiRNA^GlyCCC, tiRNA^ValCAC, tiRNA^AspGTC and tiRNA^GluCTC", "setting": "endometrial cells", "value": "minimal change"}, {"measurement": "tiRNA^HisGTG expression", "setting": "endometrial cells", "value": "increased by more than twofold"}, {"measurement": "early and late apoptosis cell populations", "setting": "End1/E6E7 cells [7]; End1/E6E7, Example 6", "value": "tended to increase"}, {"measurement": "early and late apoptosis", "setting": "End1/E6E7 cells [7]; End1/E6E7, Example 7 comparison fraxetin vs dienogest", "value": "induced both early and late apoptosis"}, {"measurement": "early and late apoptosis cell populations", "setting": "VK2/E6E7 cells [8]; VK2/E6E7, Example 6", "value": "tended to increase"}, {"measurement": "early and late apoptosis", "setting": "VK2/E6E7 cells [8]; VK2/E6E7, Example 7 comparison fraxetin vs dienogest", "value": "induced both early and late apoptosis"}, {"measurement": "ATP production", "setting": "End1/E6E7 cells [9]", "value": "significantly decreased"}, {"measurement": "basal respiration", "setting": "End1/E6E7 cells [9]", "value": "significantly decreased"}, {"measurement": "maximal respiration", "setting": "End1/E6E7 cells [9]", "value": "significantly decreased"}, {"measurement": "reserve respiratory capacity compared to control", "setting": "End1/E6E7 cells [9]", "value": "halved"}, {"measurement": "ATP production", "setting": "VK2/E6E7 cells [10]", "value": "decreased"}, {"measurement": "basal respiration", "setting": "VK2/E6E7 cells [10]", "value": "decreased"}]}
